Experimental data: PubChem BioAssay AID248 (DTP/NCI, 2004)
Several values for one entry are separate records, joined by “and”; a condition that tells them apart may be missing. Equal values may be shown once. Toxic doses and inconclusive results are not listed. No stated cut-off is given here; in the data, active means T/C of 150% or more; inactive means T/C below 125%.

System: L1210 leukemia ip in BDF1 mice, survival T/C
Test: NCI In Vivo Anticancer Drug Screen. Data for tumor model L1210 Leukemia (intraperitoneal) in B6D2F1 (BDF1) mice
Details: endpoint: mean survival time, higher = longer survival
Summary of the method: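 Tumor cells were implanted, animals were treated, and survival was followed. The result divides the treated measurement by the vehicle-control measurement.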

[1] = dose: 50.0 mg/kg/injection, schedule: Q04DX003 (ip), vehicle: saline with Tween-80
[2] = dose: 100.0 mg/kg/injection, schedule: Q04DX003 (ip), vehicle: saline with Tween-80
[3] = dose: 100.0 mg/kg/injection, schedule: Q01DX001 (ip), vehicle: Klucel (hydroxypropylcellulose) (HPC)
[4] = dose: 200.0 mg/kg/injection, schedule: Q01DX001 (ip), vehicle: Klucel (hydroxypropylcellulose) (HPC)
[5] = dose: 400.0 mg/kg/injection, schedule: Q01DX001 (ip), vehicle: Klucel (hydroxypropylcellulose) (HPC)
[6] = dose: 100.0 mg/kg/injection, schedule: Q01DX001 (ip), vehicle: carboxymethylcellulose (CMC)
[7] = dose: 200.0 mg/kg/injection, schedule: Q01DX001 (ip), vehicle: carboxymethylcellulose (CMC)
[8] = dose: 400.0 mg/kg/injection, schedule: Q01DX001 (ip), vehicle: carboxymethylcellulose (CMC)
[9] = dose: 100.0 mg/kg/injection, schedule: Q04DX002 (ip), vehicle: saline with Tween-80
[10] = dose: 200.0 mg/kg/injection, schedule: Q04DX002 (ip), vehicle: saline with Tween-80
[11] = dose: 400.0 mg/kg/injection, schedule: Q04DX002 (ip), vehicle: saline with Tween-80
[12] = dose: 100.0 mg/kg/injection, schedule: Q01DX001 (ip), vehicle: saline
[13] = dose: 200.0 mg/kg/injection, schedule: Q01DX001 (ip), vehicle: saline

Measured: T/C

CC(=O)Nc1cccc2c1C(=O)c1c(c(O)c3ccccc3c1O)C2=O
inactive: dose: 0.12 mg/kg/injection, schedule: Q01DX009 (ip), vehicle: Klucel (hydroxypropylcellulose) (HPC) 101 % of control | dose: 0.25 mg/kg/injection, schedule: Q01DX009 (ip), vehicle: Klucel (hydroxypropylcellulose) (HPC) 100 % of control | dose: 0.25 mg/kg/injection, schedule: Q04DX003 (ip), vehicle: Klucel (hydroxypropylcellulose) (HPC) 97 % of control | dose: 0.5 mg/kg/injection, schedule: Q01DX009 (ip), vehicle: Klucel (hydroxypropylcellulose) (HPC) 102 % of control | dose: 0.5 mg/kg/injection, schedule: Q04DX003 (ip), vehicle: Klucel (hydroxypropylcellulose) (HPC) 97 % of control | dose: 1.0 mg/kg/injection, schedule: Q01DX009 (ip), vehicle: Klucel (hydroxypropylcellulose) (HPC) 97 % of control | dose: 1.0 mg/kg/injection, schedule: Q04DX003 (ip), vehicle: Klucel (hydroxypropylcellulose) (HPC) 97 % of control | dose: 2.0 mg/kg/injection, schedule: Q01DX009 (ip), vehicle: Klucel (hydroxypropylcellulose) (HPC) 98 % of control | dose: 2.0 mg/kg/injection, schedule: Q04DX003 (ip), vehicle: Klucel (hydroxypropylcellulose) (HPC) 101 % of control | dose: 2.0 mg/kg/injection, schedule: Q04DX003 (ip), vehicle: water 95 % of control | dose: 3.12 mg/kg/injection, schedule: Q01DX009 (ip), vehicle: saline with Tween-80 102 % of control | dose: 4.0 mg/kg/injection, schedule: Q01DX009 (ip), vehicle: Klucel (hydroxypropylcellulose) (HPC) 105 % of control | dose: 4.0 mg/kg/injection, schedule: Q04DX003 (ip), vehicle: water 100 % of control | dose: 6.25 mg/kg/injection, schedule: Q01DX009 (ip), vehicle: saline with Tween-80 100 % of control | dose: 8.0 mg/kg/injection, schedule: Q04DX003 (ip), vehicle: water 102 % of control | dose: 12.5 mg/kg/injection, schedule: Q01DX009 (ip), vehicle: saline with Tween-80 97 % of control | dose: 12.5 mg/kg/injection, schedule: Q04DX003 (ip), vehicle: saline with Tween-80 100 % of control | dose: 16.0 mg/kg/injection, schedule: Q04DX003 (ip), vehicle: water 96 % of control and 103 % of control | dose: 25.0 mg/kg/injection, schedule: Q01DX009 (ip), vehicle: saline with Tween-80 102 % of control | dose: 25.0 mg/kg/injection, schedule: Q04DX003 (ip), vehicle: saline with Tween-80 96 % of control | dose: 32.0 mg/kg/injection, schedule: Q04DX003 (ip), vehicle: water 96 % of control | dose: 50.0 mg/kg/injection, schedule: Q01DX009 (ip), vehicle: saline with Tween-80 96 % of control | [1] 103 % of control | dose: 64.0 mg/kg/injection, schedule: Q04DX003 (ip), vehicle: water 97 % of control | [2] 96 % of control

O=C1CC2(CCN(Cc3ccccc3)CC2)C(=O)N1Nc1ccccc1
inactive: [3] 105 % of control | [4] 100 % of control | [5] 100 % of control

CC1(C)OC(CF)C2OC(C)(C)OC(CF)C2O1 (configuration not stated)
inactive: dose: 56.25 mg/kg/injection, schedule: Q01DX009 (ip), vehicle: carboxymethylcellulose (CMC) 95 % of control | [6] 96 % of control | dose: 112.5 mg/kg/injection, schedule: Q01DX009 (ip), vehicle: carboxymethylcellulose (CMC) 102 % of control | [7] 96 % of control | [8] 104 % of control

CC(=O)Nc1c(Cl)cccc1Cl
inactive: dose: 100.0 mg/kg/injection, schedule: Q04DX003 (ip), vehicle: Klucel (hydroxypropylcellulose) (HPC) 95 % of control | dose: 200.0 mg/kg/injection, schedule: Q04DX003 (ip), vehicle: Klucel (hydroxypropylcellulose) (HPC) 108 % of control | dose: 400.0 mg/kg/injection, schedule: Q04DX003 (ip), vehicle: Klucel (hydroxypropylcellulose) (HPC) 110 % of control

CN(C)c1ccc(-c2c3cc(O)c(=O)cc-3oc3cc(O)c(O)cc23)cc1
inactive: [1] 95 % of control | [2] 90 % of control | dose: 200.0 mg/kg/injection, schedule: Q04DX003 (ip), vehicle: saline with Tween-80 87 % of control

Nc1ccn(CC(=O)c2cc3ccccc3[nH]2)c(=O)n1
inactive: [9] 101 % of control | [10] 97 % of control | [11] 108 % of control

S=C(Nc1ccccc1)Nc1ccc(NC(=S)Nc2ccccc2)cc1
inactive: dose: 100.0 mg/kg/injection, schedule: Q01DX001 (ip), vehicle: saline with Tween-80 96 % of control | dose: 200.0 mg/kg/injection, schedule: Q01DX001 (ip), vehicle: saline with Tween-80 92 % of control

O=C(Cl)OC12CC3CC(CC(C3)C1)C2
inactive: [3] 95 % of control | dose: 100.0 mg/kg/injection, schedule: Q01DX009 (ip), vehicle: other 105 % of control | [4] 97 % of control | dose: 200.0 mg/kg/injection, schedule: Q01DX009 (ip), vehicle: other 105 % of control | [5] 100 % of control | dose: 400.0 mg/kg/injection, schedule: Q01DX009 (ip), vehicle: other 105 % of control

CC(=O)C1(C)CC=CCC1C(=O)O (configuration not stated)
inactive: dose: 100.0 mg/kg/injection, schedule: Q01DX009 (ip), vehicle: saline 107 % of control | dose: 100.0 mg/kg/injection, schedule: Q04DX003 (ip), vehicle: saline 119 % of control | dose: 200.0 mg/kg/injection, schedule: Q01DX009 (ip), vehicle: saline 116 % of control | dose: 200.0 mg/kg/injection, schedule: Q04DX003 (ip), vehicle: saline 101 % of control | dose: 400.0 mg/kg/injection, schedule: Q01DX009 (ip), vehicle: saline 107 % of control | dose: 400.0 mg/kg/injection, schedule: Q04DX003 (ip), vehicle: saline 106 % of control

O=C1C2CC3C=CC1C(C3)C2 (configuration not stated) (tested in a mixture with another compound)
inactive: [3] 104 % of control | [4] 103 % of control | [5] 97 % of control

O=c1c2ccccc2[nH]c2cc(-n3nnc4ccccc4c3=O)ccc12
inactive: dose: 75.0 mg/kg/injection, schedule: Q01DX001 (ip), vehicle: saline 88 % of control | dose: 150.0 mg/kg/injection, schedule: Q01DX001 (ip), vehicle: saline 88 % of control | dose: 300.0 mg/kg/injection, schedule: Q01DX001 (ip), vehicle: saline 98 % of control

O=C1C(c2c[nH]c3ccccc23)=Nc2ccc(Br)cc21
inactive: dose: 50.0 mg/kg/injection, schedule: Q01DX001 (ip), vehicle: saline 104 % of control | [12] 104 % of control | [13] 106 % of control

O=C(Oc1ccccc1[N+](=O)[O-])c1ccccc1
inactive: dose: 100.0 mg/kg/injection, schedule: Q04DX003 (ip), vehicle: other 98 % of control | dose: 200.0 mg/kg/injection, schedule: Q04DX003 (ip), vehicle: other 118 % of control | dose: 400.0 mg/kg/injection, schedule: Q04DX003 (ip), vehicle: other 93 % of control

O=[N+]([O-])c1ccc(SCc2ccc(Br)cc2)c([N+](=O)[O-])c1
inactive: [6] 98 % of control | [7] 104 % of control | [8] 95 % of control

CC(=O)Nc1ncccn1
inactive: [9] 98 % of control | [10] 98 % of control | [11] 98 % of control

CCOC(=O)Cc1ccc2[nH]c(C(=O)OCC)cc(=O)c2c1
inactive: [12] 95 % of control | [13] 90 % of control | dose: 400.0 mg/kg/injection, schedule: Q01DX001 (ip), vehicle: saline 95 % of control
